Activity calls are given as the source filed them. The calls are words filed in the database; no cut-off is given here.
Tests used:
[1] = Inhibition of wild type ATG12-ATG3 protein protein interaction (unknown origin) expressed in HEK293T cells preincubated for ATG12 for 1 hr followed by ATG3 addition by luminescence based microplate analysis; format: cell-based, Homo sapiens
[2] = biological target: Casein kinase II subunit alpha' (Homo sapiens) (UniProt P19784); assay: Inhibition of […] (unknown origin) assessed as residual activity relative to control; set-up: concentration or dose not given beside the values
Casein kinase II subunit alpha' (Homo sapiens), sequence (P19784 whole entry, looked up): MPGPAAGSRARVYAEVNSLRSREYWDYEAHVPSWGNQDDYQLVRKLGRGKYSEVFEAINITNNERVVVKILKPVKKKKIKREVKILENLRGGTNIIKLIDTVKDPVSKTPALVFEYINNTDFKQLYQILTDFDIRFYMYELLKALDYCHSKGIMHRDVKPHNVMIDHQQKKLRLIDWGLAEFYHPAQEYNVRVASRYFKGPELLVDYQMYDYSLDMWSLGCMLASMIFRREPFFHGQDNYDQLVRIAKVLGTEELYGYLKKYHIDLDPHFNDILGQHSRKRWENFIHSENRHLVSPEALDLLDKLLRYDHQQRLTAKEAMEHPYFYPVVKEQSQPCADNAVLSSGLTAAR

Row | SMILES | IC50 [1] [µM] | Activity [2]
1 | O=C(O)c1ccc2c(c1)nc(Nc1cccc(Cl)c1)c1cccnc12 | 6 | 13%
2 | Cc1cn2c(NC34CC5CC(CC(C5)C3)C4)nc3cc(C(=O)O)ccc3c2n1 | 25 | 83%
3 | O=C(O)c1ccc2c(Cc3ccccc3)nc(Nc3cccc(Cl)c3)nc2c1 | > 99 | 96%
4 | Cn1cnc2c3ccc(C(=O)O)cc3nc(Nc3cccc(Cl)c3)c21 | 62 | 55%
5 | O=C(O)c1ccc2c(c1)nc(Nc1cccc(Cl)c1)c1ncsc12 | 16 | 1%
6 | CC1=CN2C(Nc3cccc(Cl)c3)=Nc3cc(-c4nnn[nH]4)ccc3C2N1 (centres undefined) | 73 | 80%
7 | CC(=O)Oc1ccc(COC(=O)c2ccc3c(c2)nc(Nc2cccc(Cl)c2)c2cccnc23)cc1 | 53 | inactive
8 | Cc1cn2c(Nc3cccc(C(C)C)c3)nc3cc(C(=O)O)ccc3c2n1 | 41 | 31%
9 | COc1nc(Nc2cccc(Cl)c2)nc2cc(C(=O)O)ccc12 | 91 | 50%
10 | Cc1cn2c(Nc3cccc(C(F)(F)F)c3)nc3cc(C(=O)O)ccc3c2n1 | 30 | 48%
11 | Cc1cn2c(Nc3cccc(OC(F)(F)F)c3)nc3cc(C(=O)O)ccc3c2n1 | 37 | 42%
12 | Cc1cn2c(Nc3cccc(C(C)(C)C)c3)nc3cc(C(=O)O)ccc3c2n1 | 24 | 102%
13 | O=C(O)c1ccc2c(Cc3ccccc3)cc(Nc3cccc(Cl)c3)nc2c1 | > 99 | 101%
14 | O=C(O)c1ccc2c(c1)nc(Nc1cccc(Cl)c1)c1ccncc12 [SILMITASERTIB] | 27 | 2%
15 | O=C(O)c1ccc2c(c1)nc(Nc1cccc(Cl)c1)c1cnccc12 | 10 | 28%
16 | Cc1cn2c(NC3CCCCC3)nc3cc(C(=O)O)ccc3c2n1 | > 99 | 72%
17 | CC(C)c1cn2c(Nc3cccc(Cl)c3)nc3cc(C(=O)O)ccc3c2n1 | 30 | 105%
18 | Cc1nsc2c1c(Nc1cccc(Cl)c1)nc1cc(C(=O)O)ccc12 | 11 | -1%
19 | Cn1ncc2c3ccc(C(=O)O)cc3nc(Nc3cccc(Cl)c3)c21 | 19 | 1%
20 | CCc1cn2c(Nc3cccc(Cl)c3)nc3cc(C(=O)O)ccc3c2n1 | 24 | 20%
21 | Cc1cn2c(Nc3cccc(F)c3)nc3cc(C(=O)O)ccc3c2n1 | 90 | 35%
22 | Cc1cn2c(Nc3ccnc(Cl)c3)nc3cc(C(=O)O)ccc3c2n1 | 71 | 73%
23 | O=C(O)c1ccc2c(c1)nc(Nc1cccc(Cl)c1)n1cc(Cc3ccccc3)nc21 | 14 | 81%
24 | Cc1cn2c(Nc3cccc(Cl)c3)nc3cc(P(=O)(O)O)ccc3c2n1 | > 99 | 95%

Row | SMILES | IC50 [1] [µM] | Activity [2]
25 | O=C(O)c1ccc2ccc(Nc3cccc(Cl)c3)nc2c1 | 50 | 20%
26 | Cc1cn2c(N(C)c3cccc(Cl)c3)nc3cc(C(=O)O)ccc3c2n1 | > 99 | 75%
27 | CC1=CN2C(Nc3cccc(Cl)c3)=Nc3cc(C(N)=O)ccc3C2N1 (centres undefined) | > 99 | 109%
28 | CC1=CN2C(Nc3cccc(Cl)c3)=Nc3cc(-c4noc(=O)[nH]4)ccc3C2N1 (centres undefined) | 92 | 105%
29 | N/C(=N\O)c1ccc2c(c1)nc(Nc1cccc(Cl)c1)c1cccnc12 | > 99 | inactive
30 | O=C(O)c1ccc2c(c1)nc(Nc1cccc(Cl)c1)n1ccnc21 | 14 | 31%
31 | O=C(O)c1ccc2cnc(Nc3cccc(Cl)c3)nc2c1 | 62 | -4%
32 | Cc1scc2c1c(Nc1cccc(Cl)c1)nc1cc(C(=O)O)ccc12 | 14 | 33%
33 | O=C(O)c1ccc2c(c1)N=C(Nc1cccc(Cl)c1)N1CCCN=C21 | > 99 | 87%
34 | Cc1cn2c(Nc3cccc(C#N)c3)nc3cc(C(=O)O)ccc3c2n1 | 8 | 38%
35 | Clc1cccc(Nc2nc3cc(-c4nnn[nH]4)ccc3c3ncccc23)c1 | 64 | 53%
36 | O=C(O)c1ccc2c(c1)nc(Oc1cccc(Cl)c1)c1ccncc12 | 51 | 4%
37 | O=C(O)c1ccc2c(c1)N=C(Nc1cccc(Cl)c1)N1CCN=C21 | 60 | 128%
38 | O=C(O)c1ccc2c(c1)nc(Nc1cccc(Cl)c1)n1cc(-c3ccccc3)nc21 | 9 | 114%
39 | Cn1ncc2c(Nc3cccc(Cl)c3)nc3cc(C(=O)O)ccc3c21 | 42 | 35%
40 | Cc1cnc2c3ccc(C(=O)O)cc3nc(Nc3cccc(Cl)c3)n12 | 24 | 29%
41 | O=c1[nH]nc(-c2ccc3c(c2)nc(Nc2cccc(Cl)c2)c2cccnc23)o1 | 72 | 52%
42 | Cc1cn2c(Nc3cccc(I)c3)nc3cc(C(=O)O)ccc3c2n1 | 10 | 11%
43 | Cc1cn2c(Nc3ccc(Cl)cc3)nc3cc(C(=O)O)ccc3c2n1 | > 99 | 76%
44 | Cc1cn2c(Nc3cccc(Cl)c3)nc3cc(C(=O)O)ccc3c2n1 | 8 | 26%
45 | Cc1cn2c(NC(C)(C)C)nc3cc(C(=O)O)ccc3c2n1 | > 99 | 104%
46 | O=C(O)c1ccc2c(c1)nc(Nc1cccc(Cl)c1)c1ccccc12 | 45 | 36%
47 | O=C(O)c1ccc2c(c1)nc(Nc1cccc(Cl)c1)c1ccsc12 | 14 | -1%
